19 compounds from US11591355B2 (Peloton Therapeutics, Inc., priority 2017, dated 2023) can be followed below.

The term IC50 denotes the concentration at which inhibition is half-maximal.

In experiment [1] the target is T1, Human CD73 (Homo sapiens, UniProt P21589).
T1 construct: purchased R&D Systems; host or cells: CHO cells
T1 sequence (P21589 27-549): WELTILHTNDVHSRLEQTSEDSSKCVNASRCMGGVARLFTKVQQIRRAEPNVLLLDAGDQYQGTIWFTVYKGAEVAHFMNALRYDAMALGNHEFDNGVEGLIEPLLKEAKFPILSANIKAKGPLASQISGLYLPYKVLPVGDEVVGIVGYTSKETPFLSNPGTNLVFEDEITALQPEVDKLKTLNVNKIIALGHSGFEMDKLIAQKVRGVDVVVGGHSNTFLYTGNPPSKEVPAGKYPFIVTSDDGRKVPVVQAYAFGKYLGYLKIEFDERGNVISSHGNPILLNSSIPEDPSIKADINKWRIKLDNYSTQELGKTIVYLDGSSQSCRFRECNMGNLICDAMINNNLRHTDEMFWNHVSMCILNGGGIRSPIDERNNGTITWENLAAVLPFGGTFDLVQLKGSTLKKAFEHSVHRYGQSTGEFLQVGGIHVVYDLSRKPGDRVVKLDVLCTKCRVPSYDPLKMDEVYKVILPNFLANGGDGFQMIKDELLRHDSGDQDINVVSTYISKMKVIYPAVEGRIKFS
Put plainly: CD73 Enzyme Assay. The settings on record: 0.25 nM hCD73, 25 μM AMP, kinetic read at 360 nm; read-out: CD73 Enzyme Assay IC50. It counts as biochemical.

Experiment [2] addresses T2, CD73 on U138 human neuroglioma cells (Homo sapiens, UniProt P21589).
T2 construct: U138 cells were obtained from ATCC and cultured in DMEM with 10% FBS; host or cells: U138 human neuroglioma cells
T2 sequence (P21589 27-549): T1 sequence (P21589 27-549)
Nature of the experiment: CD73 Cell-Based Assay. The settings on record: U138 cells, AMP substrate, 2 hours at 37° C., inorganic phosphate by malachite green. The procedure:
U138 human neuroglioma cells were used in these experiments. U138 cells were obtained from ATCC and cultured in DMEM with 10% FBS. 2500 cells were seeded into 96-well plate with 100 μL of media the day before the experiment. Cells were washed twice with 200 μL of assay buffer (20 mM HEPES, pH 7.4; 137 mM NaCl; 5.4 mM KCl; 1.3 mM CaCl2); 4.2 mM NaHCO3; 1 mg/mL glucose) to remove residual inorganic phosphate. After washing, 100 μL of buffer was added to each well, then 100 μL of a mixture of AMP substrate (200 μM) and diluted compound was added to each well. The cells were incubated at 37° C. (with 5% CO2) for 2 hours. 50 μL of supernatant was transferred to a 96-well assay plate and the concentration of inorganic phosphate was determined using malachite green reagent (R&D System; Cat: DY996).

With `O=P(O)(O)COC[C@H]1O[C@@H](n2ccc3c(NC4CCCC4)nc(C#CC4(O)CC4)nc32)[C@H](O)[C@@H]1O` [Compound 276, ((((2R,3S,4R,5R)-5-(4-(cyclopentylamino)-2-((1-hydroxycyclopropyl)ethynyl)-7H-pyrrolo[2,3-d]pyrimidin-7-yl)-3,4-dihydroxytetrahydrofuran-2-yl)methoxy)methyl)phosphonic acid], the IC50 in experiment [1] and in experiment [2] was less than 10 nM throughout.
`O=P(O)(O)CS(=O)(=O)C[C@H]1O[C@@H](n2ccc3c(NC4CCC(F)(F)C4)nc(Cl)nc32)[C@H](O)[C@@H]1O` (stereo partly drawn) [Compound 171, [(2S,3S,4R,5R)-5-[2-chloro-4-[(3,3-difluoro-cyclopentyl)amino]-pyrrolo[2,3-d]-pyrimidin-7-yl]-3,4-dihydroxy-tetrahydro-furan-2-yl]methyl-sulfonylmethylphos-phonic acid]: the IC50 in experiment [1] and in experiment [2] was less than 10 nM each time.
Consider `COC(=O)OCOP(=O)(O)COC[C@H]1O[C@@H](n2ccc3c(NC4CCCC4)nc(Cl)nc32)[C@H](O)[C@@H]1O` [Compound 202, [(2R,3S,4R,5R)-5-[2-chloro-4-(cyclopentyl-amino)pyrrolo[2,3-d]-pyrimidin-7-yl]-3,4-dihydroxy-tetrahydro-furan-2-yl]methoxy-methyl-(methoxy-carbonyloxymethoxy)-phosphinic acid], for which the IC50 in experiment [1] and in experiment [2] was 10 to 100 nM in each case.
With `O=P(O)(O)COC[C@H]1O[C@@H](n2ccc3c(NC4CCCC4)nc(O)nc32)[C@H](O)[C@@H]1O` [Compound 250, [(2R,3S,4R,5R)-5-[4-(cyclopentylamino)-2-hydroxy-pyrrolo[2,3-d]pyrimidin-7-yl]-3,4-dihydroxy-tetrahydro-furan-2-yl]methoxy-methylphosphonic acid], the IC50 in experiment [1] and in experiment [2] was 10 to 100 nM each time.
Regarding `O=P(O)(O)COC[C@H]1O[C@@H](n2ccc3c(NCc4ccccc4)nc(Cl)nc32)[C@H](O)[C@@H]1O` [Compound 56, [(2R,3S,4R,5R)-5-[4-(benzylamino)-2-chloro-pyrrolo[2,3-d]-pyrimidin-7-yl]-3,4-dihydroxy-tetrahydro-furan-2-yl]methoxy-methylphosphonic acid], the IC50 in experiment [1] and in experiment [2] was 10 to 100 nM each time.
Regarding `O=P(O)(O)COC[C@H]1O[C@@H](n2ccc3c(Oc4ccccc4)nc(Cl)nc32)[C@H](O)[C@@H]1O` [Compound 206, [(2R,3S,4R,5R)-5-(2-chloro-4-phenoxy-pyrrolo[2,3-d]-pyrimidin-7-yl)-3,4-dihydroxy-tetrahydro-furan-2-yl]methoxy-methylphosphonic acid], the half-inhibitory concentration (IC50) is 10 to 100 nM in experiment [1] and greater than 1000 nM in experiment [2].
For `C[C@H](Nc1nc(Cl)nc2c1ccn2[C@@H]1O[C@H](COCP(=O)(O)O)[C@@H](O)[C@H]1O)c1ccc(C2CC2)cc1` [Compound 198, [(2R,3S,4R,5R)-5-[2-chloro-4-[[(1S)-1-(4-cyclopropylphenyl)-ethyl]amino]pyrrolo-[2,3-d]pyrimidin-7-yl]-3,4-dihydroxy-tetra-hydrofuran-2-yl]-methoxymethylphos-phonic acid], the IC50 in experiment [1] and in experiment [2] was less than 10 nM in each case.
As for `O=P(O)(O)COC[C@H]1O[C@@H](n2ccc3c(N(CC4CC4)C4CCCC4)nc(Cl)nc32)[C@H](O)[C@@H]1O` [Compound 196, [(2R,3S,4R,5R)-5-[2-chloro-4-[cyclopentyl-(cyclopropylmethyl)-amino]pyrrolo[2,3-d]-pyrimidin-7-yl]-3,4-dihydroxy-tetrahydro-furan-2-yl]methoxy-methylphosphonic acid], the IC50 in experiment [1] and in experiment [2] was less than 10 nM in each case.
For the compound `C[C@@H](Nc1nc(C#N)nc2c1ccn2[C@@H]1O[C@H](COCP(=O)(O)O)[C@@H](O)[C@H]1O)c1ccc(C(F)(F)F)cc1` [Compound 115, [(2R,3S,4R,5R)-5-[2-cyano-4-[[(1R)-1-[4-(trifluoromethyl)-phenyl]ethyl]amino]-pyrrolo[2,3-d]-pyrimidin-7-yl]-3,4-dihydroxy-tetrahydro-furan-2-yl]methoxy-methylphosphonic acid], the IC50 was less than 10 nM in experiment [1] and 10 to 100 nM in experiment [2].
For `C[C@H](c1ccccc1)N(C)c1nc(Cl)nc2c1ncn2[C@@H]1O[C@H](COCP(=O)(O)O)[C@@H](O)[C@H]1O` [Compound 104], the results for the half-inhibitory concentration (IC50) in experiment [1] and in experiment [2] were 10 to 100 nM and less than 10 nM, respectively.
As for `Cc1cc2c(NC3CCCC3)nc(Cl)nc2n1[C@@H]1O[C@H](COCP(=O)(O)O)[C@@H](O)[C@H]1O` [Compound 200, [(2R,3S,4R,5R)-5-[2-chloro-4-(cyclopentyl-amino)-6-methyl-pyrrolo[2,3-d]-pyrimidin-7-yl]-3,4-dihydroxy-tetrahydro-furan-2-yl]methoxy-methylphosphonic acid], the IC50 in experiment [1] and in experiment [2] was 10 to 100 nM each time.
Take `C[C@H](Nc1nc(Cl)nc2c1ccn2[C@@H]1O[C@H](COCP(=O)(O)O)[C@@H](O)[C@H]1O)c1ccc(Cl)cc1` [Compound 140, [(2R,3S,4R,5R)-5-[2-chloro-4-[[(1S)-1-(4-chlorophenyl)ethyl]-amino]pyrrolo[2,3-d]-pyrimidin-7-yl]-3,4-dihydroxy-tetrahydro-furan-2-yl]methoxy-methylphosphonic acid]: the IC50 in experiment [1] and in experiment [2] was less than 10 nM in each case.
Take `O=P(O)(O)COC[C@H]1O[C@@H](n2ccc3c(NC4CCCC4)nc(Cl)nc32)[C@H](O)[C@@H]1O` [Compound 70, [(2R,3S,4R,5R)-5-[2-chloro-4-(cyclopentylamino)pyrrolo[2,3-d]pyrimidin-7-yl]-3,4-dihydroxy-tetrahydrofuran-2-yl]methoxymethylphosphonic acid]: the 50% inhibitory concentration (IC50) in experiment [1] and in experiment [2] was less than 10 nM each time.
Take `C[C@@H](O)COc1nc(NC2CCCC2)c2ccn([C@@H]3O[C@H](COCP(=O)(O)O)[C@@H](O)[C@H]3O)c2n1` [Compound 261, [(2R,3S,4R,5R)-5-[4-(cyclopentylamino)-2-[(2R)-2-hydroxy-propoxy]pyrrolo[2,3-d]pyrimidin-7-yl]-3,4-dihydroxy-tetrahydro-furan-2-yl]methoxy-methylphosphonic acid]: the IC50 in experiment [1] and in experiment [2] was less than 10 nM in each case.
With `N#Cc1nc(NC2CCC2)c2ccn([C@@H]3O[C@H](COCP(=O)(O)O)[C@@H](O)[C@H]3O)c2n1` [Compound 110, [(2R,3S,4R,5R)-5-[2-cyano-4-(cyclobutyl-amino)pyrrolo[2,3-d]-pyrimidin-7-yl]-3,4-dihydroxy-tetrahydro-furan-2-yl]methoxy-methylphosphonic acid], the IC50 in experiment [1] and in experiment [2] was less than 10 nM in each case.
As for `O=P(O)(O)CS(=O)(=O)C[C@H]1O[C@@H](n2ccc3c(NC4CCC(F)(F)CC4)nc(Cl)nc32)[C@H](O)[C@@H]1O` [Compound 182, [(2S,3S,4R,5R)-5-[2-chloro-4-[(4,4-difluoro-cyclohexyl)amino]-pyrrolo[2,3-d]-pyrimidin-7-yl]-3,4-dihydroxy-tetrahydro-furan-2-yl]methyl-sulfonylmethylphos-phonic acid], the IC50 in experiment [1] and in experiment [2] was less than 10 nM each time.
As to `O=P(O)(O)COC[C@H]1O[C@@H](c2c[nH]c3c(N4CC5CCCC5C4)nc(Cl)nc23)[C@H](O)[C@@H]1O` (stereo partly drawn) [Compound 285, ((((2R,3S,4R,5S)-5-(2-chloro-4-(hexahydrocyclopenta[c]pyrrol-2 (1H)-yl)-5H-pyrrolo[3,2-d]pyrimidin-7-yl)-3,4-dihydroxytetrahydrofuran-2-yl)methoxy)methyl)phosphonic acid], the IC50 in experiment [1] and in experiment [2] was less than 10 nM throughout.
For `N#Cc1nc(NC2CC3CC3C2)c2cnn([C@@H]3O[C@H](CS(=O)(=O)CP(=O)(O)O)[C@@H](O)[C@H]3O)c2n1` (stereo partly drawn) [Compound 300, [(2S,3S,4R,5R)-5-[4-(3-bicyclo[3.1.0]-hexanylamino)-6-cyano-pyrazolo[3,4-d]-pyrimidin-1-yl]-3,4-dihydroxy-tetrahydro-furan-2-yl]methyl-sulfonylmethylphos-phonic acid], the IC50 in experiment [1] is 10 to 100 nM; in experiment [2], less than 10 nM.
Regarding `O=P(O)(O)COC[C@H]1O[C@@H](n2ccc3c(N4CCCC4)nc(Cl)nc32)[C@H](O)[C@@H]1O` [Compound 190, [(2R,3S,4R,5R)-5-(2-chloro-4-pyrrolidin-1-yl-pyrrolo[2,3-d]-pyrimidin-7-yl)-3,4-dihydroxy-tetrahydro-furan-2-yl]methoxy-methylphosphonic acid], the 50% inhibitory concentration (IC50) in experiment [1] and in experiment [2] was less than 10 nM throughout.
